pIC50: −log10 of the molar value. The source made the active and inactive calls. No cut-off for these calls is given here.

What all share (format): functional, cell-based
In experiment [1] the test system is MCF7. Put plainly: Cytotoxicity against human MCF7 cells measured after 24 hrs by MTT assay. The following applies: MCF7, 24 h. A general note: Tetrazolium dyes change colour on reduction, which living cells bring about.
Experiment [2] relates to MCF7. Put plainly: Downregulation of ACSL5 gene in human MCF7 cells at 5 uM by heat map analysis.
Experiment [3] has as its system MCF7. Put plainly: Downregulation of STEAP3 gene in human MCF7 cells at 5 uM by heat map analysis.
Experiment [4] relates to MCF7. Briefly: Downregulation of TP53 gene in human MCF7 cells at 5 uM by heat map analysis.
For experiment [5], the system named is MCF7. Briefly: Downregulation of NOXO1 gene in human MCF7 cells at 5 uM by heat map analysis.
Experiment [6] concerns MCF7. Briefly: Downregulation of ACSL4 gene in human MCF7 cells at 5 uM by heat map analysis.
Experiment [7] relates to MCF7. Put plainly: Downregulation of LPCAT3 gene in human MCF7 cells at 5 uM by heat map analysis.
For experiment [8], the system named is MCF7. Briefly: Downregulation of ATG7 gene in human MCF7 cells at 5 uM by heat map analysis.
The test system of experiment [9] is MCF7. Put plainly: Downregulation of NOXA1 gene in human MCF7 cells at 5 uM by heat map analysis.

In turn, `O=c1cc(-c2ccc(O)c(-c3c(O)cc(O)c4c(=O)cc(-c5ccc(O)cc5)oc34)c2)oc2cc(O)cc(O)c12` [AMENTOFLAVONE] gave a pIC50 with MCF7 [1] of 4.12.

Consider `COc1cc(O)c2c(=O)cc(-c3ccc(O)c(-c4c(O)cc5oc(-c6ccc(O)cc6)cc(=O)c5c4OC)c3)oc2c1`, for which the inhibition result in the experiment on MCF7 [2], in the experiment on MCF7 [3], in the experiment on MCF7 [4], with MCF7 [5], in the experiment on MCF7 [6] and in the experiment with MCF7 [7] was “Active” throughout. For the same compound, the inhibition result in the experiment with MCF7 [8] and with MCF7 [9] was “Active” each time. Besides, in the experiment on MCF7 [1], the negative logarithm of the IC50 (pIC50) is 5.16. In the experiment with MCF7 [1], `COc1ccc(-c2cc(=O)c3c(O)cc(O)cc3o2)cc1-c1c(O)cc(O)c2c(=O)cc(-c3ccc(O)cc3)oc12` [BILOBETIN] showed a negative-log IC50 (pIC50) of 4.58.

In turn, `Cc1c(O)cc2c(c1O)C(=O)C[C@H](c1ccc(Oc3cc(-c4cc(=O)c5c(O)cc(O)cc5o4)ccc3O)cc1)O2` had a pIC50 in the experiment on MCF7 [1] of 4.49. The same measure, in the same setting: the value for `O=c1cc(-c2ccc(Oc3cc(-c4cc(=O)c5c(O)cc(O)cc5o4)ccc3O)cc2)oc2cc(O)cc(O)c12` [OCHNAFLAVONE] was 4.26; that for `O=c1[nH]cc(F)c(=O)[nH]1` [FLUOROURACIL] was 5.66; that for `COc1cc(O)c2c(=O)cc(-c3ccc(O)c(-c4c(O)cc(O)c5c(=O)cc(-c6ccc(O)cc6)oc45)c3)oc2c1` [SEQUOIAFLAVONE] was 4.23.

Consider `COc1ccc(-c2cc(=O)c3c(O)cc(O)c(-c4cc(-c5cc(=O)c6c(O)cc(O)cc6o5)ccc4O)c3o2)cc1` [PODOCARPUSFLAVONE A], for which the negative-log IC50 (pIC50) in the experiment with MCF7 [1] was 4.45. Still for that read-out and setting: in the case of `O=C1CC(c2ccc(O)c(-c3c(O)cc4c(c3O)C(=O)CC(c3ccc(O)cc3)O4)c2)Oc2cc(O)cc(O)c21` (stereo not drawn) it was 4.15; in that of `O=C1C[C@H](c2ccc(Oc3cc(-c4cc(=O)c5c(O)cc(O)cc5o4)ccc3O)cc2)Oc2cc(O)cc(O)c21`, 5.11.

A word on the pIC50: it is the negative decadic logarithm of the IC50, by convention in mol/L.

Values taken from ChEMBL document CHEMBL5131413, “Cytotoxic effects of the biflavonoids isolated from Selaginella trichoclada on MCF-7 cells and its potential mechanism” (Bioorg Med Chem Lett, 2022).
